In PMC3299254 (International Journal of Microbiology, 2012):
Read-outs that look alike come from different tables or passages of the source. No end group written: not given here.

Assays:
[1] = tested on: Pseudomonas aeruginosa CMCC10104; assay type: cell-based; details: for MIC: Pseudomonas aeruginosa CMCC10104, microtiter dilution, LB medium without salt, 10^4-10^5 CFU/mL, 37°C, 24 h, OD620, Table 2
Experimental: (§1) All strains were cultured on Mueller-Hinton medium.

[2] = tested on: human erythrocytes; assay: Minimum hemolytic concentration (MHC); assay type: cell-based
Experimental: The MHCs were measured by the method as described in Chen et al.: peptides were added to 1% human erythrocytes in phosphate-buffered saline (0.08 mol/L NaCl, 0.043 mol/L Na2HPO4, 0.011 mol/L KH2PO4) and then kept at 37°C for 1 h in microtiter plates. The supernatants were collected by centrifugation (800 g), and the OD562 of each supernatant was determined. We chose a 0.1% Triton X-100 solution as the positive control because this solution causes the total release of hemoglobin. We defined the MHC as the highest peptide concentration that caused no detectable release of hemoglobin (the ratio of the OD562 for the peptide solution to the OD562 for the positive control should be less than 1%).

[3] = tested on: Klebsiella pneumonia clinical isolates; details: range over 6 clinical isolates
Excerpt: (§2) Twenty-two clinical isolates and night standard laboratory strains were used in this study: 4 Acinetobacter baumannii, 4 Pseudomonas aeruginosa, 3 Staphylococcus epidermidis, and 6 Klebsiella pneumonia (Changhai Hospital, Shanghai, China); 5 methicillin-resistance Staphylococcus aureus (Ruijin Hospital, Shanghai, China); Staphylococcus aureus CMCC26003; Bacillus subtilis DB430;Bacillus pumilus CMCC63202; Micrococcus luteus CMCC28001; E. coli ATCC8099; Klebsiella pneumoniae CMCC46117;Salmonella paratyphi B CMCC50094; Pseudomonas aeruginosa CMCC10104; Micrococcus S1.634. In addition, Pseudomonas aeruginosa CMCC10104 was used during the design of the peptides for evaluating antimicrobial activities. All strains were cultured on Mueller-Hinton medium.
(§3) The antibacterial activities of the different peptides were evaluated using the minimum inhibitory concentration (MIC). The process followed the standard microtiter dilution method in LB medium without salt. Briefly, bacteria were grown overnight in LB at 37°C and diluted in the same medium. Then, 100 μL of the medium was dispensed into each well of a 96-well plate. The number of bacteria was between 10^4 and 10^5 CFU/mL. Serial dilutions of peptides were performed consecutively in each well in 10 μL. Plates were incubated at 37°C for 24 h; then, the OD620 was measured to determine the MIC of each peptide.

[4] = tested on: Soluble wall Micrococcus S1.634; details: microtiter dilution, 37°C, 24 h, OD620
Excerpt: as §2, §3

[5] = tested on: Staphylococcus aureus CMCC26003; details: microtiter dilution, 37°C, 24 h, OD620
Excerpt: as §2, §3

[6] = tested on: E. coli ATCC8099; details: microtiter dilution, 37°C, 24 h, OD620
Excerpt: as §2, §3

[7] = tested on: Salmonella paratyphi B CMCC50094; details: microtiter dilution, 37°C, 24 h, OD620
Excerpt: as §2, §3

[8] = tested on: Bacillus subtilis DB430; details: microtiter dilution, 37°C, 24 h, OD620
Excerpt: as §2, §3

[9] = tested on: MRSA clinical isolates; details: range over 5 clinical MRSA isolates
Excerpt: as §2, §3

[10] = tested on: Staphylococcus epidermidis clinical isolates; details: range over 3 clinical isolates
Excerpt: as §2, §3

[11] = tested on: Bacillus pumilus CMCC63202; details: microtiter dilution, 37°C, 24 h, OD620
Excerpt: as §2, §3

[12] = tested on: Gram-positive and Gram-negative bacteria and 22 clinical isolates; details: overall statement
Excerpt: as §2, §3

[13] = tested on: Pseudomonas aeruginosa clinical isolates; details: range over 4 clinical isolates
Excerpt: as §2, §3

[14] = tested on: Micrococcus luteus CMCC28001; details: microtiter dilution, 37°C, 24 h, OD620
Excerpt: as §2, §3

[15] = tested on: Klebsiella pneumoniae CMCC46117; details: microtiter dilution, 37°C, 24 h, OD620
Excerpt: as §2, §3

[16] = tested on: Acinetobacter baumannii clinical isolates; assay type: cell-based; details: microtiter dilution, 37°C, 24 h, OD620
Experimental: as §1

[17] = Circular dichroism, percentage helicity; assay type: physicochemical; details: CD, 100 μM peptide, 10 mM sodium phosphate pH 7.5, 50% trifluoroethanol
Experimental: CD spectra were obtained with a Jasco J-710 instrument (Jasco, Tokyo, Japan) utilizing quartz cells with a 2 mm path length and peptide concentrations of 100 μM in a 10 mM sodium phosphate buffer with a pH of 7.5 containing 50% trifluoroethanol. Each spectrum was obtained from an average of 5 pairs of duplicates, and the percentage helicity of each peptide was determined.
The hydrophobic moments were determined with the HeliQuest web server, which can be used to evaluate amphipathicity. The percent helix values were determined based on CD spectra.

[18] = MHC/MIC ratio, MHC human erythrocytes, MIC Pseudomonas aeruginosa
[19] = 1% human erythrocytes in PBS, 37°C, 1 h, OD562, highest concentration with no detectable hemoglobin release (<1% of 0.1% Triton X-100)

Substance	Therapeutic index [1, 18]	MIC [1] [µg/mL]	MHC [2, 19] [µg/mL]	other results
KWKSFIKKAKTSFLHSAKKF-NH2 [Peptide A9]	20	25	>500	–
KWKSFIKKLTSKFLHSADKF-NH2 [Peptide D18]	20	25	>500	–
KWKSFIKKRTSKFLHSAKKF-NH2 [Peptide R9]	–	>50	–	–
KWKSFIKKLLSKFLHSAKKF-NH2 [Peptide L10]	10	12.5	<125	–
KFKSFIKKLTSKFLHSAKKF-NH2 [Peptide F2]	20	12.5	250	–
KWKSFIKKLTSKFLHSAKKN-NH2 [Peptide N20]	80	6.25	>500	–
KWKSFIKKLTSKKLHSAKKF-NH2 [Peptide K13]	–	>50	–	–
KWKSFKKKLTSKFLHSAKKF-NH2 [Peptide K6]	–	12.5	–	–
KWKSFIKKLTKKFLHSAKKF-NH2 [Peptide K11]	320	1.6	–	MIC [3]: 0.5−4.0 μg/mL; MIC [4]: 1 µg/mL; MIC [5]: 0.5 µg/mL; MIC [6]: 0.5 µg/mL; MIC [7]: 2 µg/mL; MIC [8]: 2 µg/mL; MIC [9]: 0.25−4 μg/mL; MIC [10]: 0.5−8 μg/mL; MIC [11]: 0.5 µg/mL; MICs [12]: less than 10 μg/mL; MIC [13]: 1.0−8.0 μg/mL; MIC [14]: 2 µg/mL; MIC [15]: 2 µg/mL; MIC ([16]; clinical isolate b-01): 0.8 µg/mL; MIC ([16]; clinical isolate b-02): 3.125 µg/mL; MIC ([16]; clinical isolate b-04): 1.6 µg/mL
KWKLFKKIPKFLHLAKKF-NH2 [Peptide P18, reference compound]	–	25	–	Therapeutic index ([1]; CMCC10104, 24 h): 10; MIC ([16]; clinical isolate b-01): 6.25 µg/mL; MIC ([16]; clinical isolate b-02): 25 µg/mL; MIC ([16]; clinical isolate b-03): 12.5 µg/mL; MIC ([16]; clinical isolate b-04): 12.5 µg/mL; MHC [2]: 250 µg/mL
KWKSFIKKLTSKFLHSKKKF-NH2 [Peptide K17]	40	12.5	>500	–
KWKSFIKKLTSKFLHSAKKF-NH2 [Peptide S16]	160	3.125	>500	MIC ([16]; clinical isolate b-01): 3.125 µg/mL; MIC ([16]; clinical isolate b-02): 6.25 µg/mL; MIC ([16]; clinical isolate b-03): 6.25 µg/mL; MIC ([16]; clinical isolate b-04): 3.125 µg/mL
KWKSFIKKSTSKFLHSAKKF-NH2 [Peptide S9]	10	50	>500	–
KWKSFIKKKTSKFLHSAKKF-NH2 [Peptide K9]	–	>50	–	–
KWKSFIKKLTSKALHSAKKF-NH2 [Peptide A13, S16 derivative by single amino acid substitution]	80	6.25	>500	%Helix [17]: 45.9%
KWKSFIKKLTLKFLHSKKKF-NH2 [Peptide L11, S16 derivative by single amino acid substitution]	–	>50	–	–
KWKSFIKKLTSKFLHLAKKF-NH2 [CP-P]	20	12.5	250	–
KWKSFINKLTSKFLHSAKKF-NH2 [Peptide N7]	40	12.5	>500	–
KWKSFIKKLTSKFLHSANKF-NH2 [Peptide N18, S16 derivative by single amino acid substitution]	80	6.25	>500	%Helix [17]: 37.2%
KWNSFIKKLTSKFLHSAKKF-NH2 [Peptide N3]	–	12.5	–	–
KWKSFIKKLASKFLHSAKKF-NH2 [Peptide A10, S16 derivative by single amino acid substitution]	20	12.5	250	%Helix [17]: 72.5%
KWKSFIKKLTDKFLHSAKKF-NH2 [Peptide D11]	20	25	>500	–
